Target: T1, GST-PfNSMase (PfNSM product; plasmodial SM/LCPL-PLC) (Plasmodium falciparum, UniProt Q8WSF5)
T1 sequence (Q8WSF5 1-393): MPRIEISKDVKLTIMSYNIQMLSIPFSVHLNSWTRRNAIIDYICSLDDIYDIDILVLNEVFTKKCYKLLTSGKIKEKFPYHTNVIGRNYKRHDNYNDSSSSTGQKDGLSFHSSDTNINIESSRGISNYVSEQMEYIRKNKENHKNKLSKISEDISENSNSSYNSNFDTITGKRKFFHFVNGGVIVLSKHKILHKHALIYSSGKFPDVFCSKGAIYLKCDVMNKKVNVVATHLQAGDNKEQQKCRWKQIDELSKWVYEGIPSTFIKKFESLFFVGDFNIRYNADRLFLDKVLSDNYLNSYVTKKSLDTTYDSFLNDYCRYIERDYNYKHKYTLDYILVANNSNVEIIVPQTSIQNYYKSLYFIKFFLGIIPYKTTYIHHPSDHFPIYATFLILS
Test: competition of […]lysoPtdCho hydrolysis, E. coli membrane fraction
Type: biochemical
Conditions: 10 μM [palmitoyl-1-14C]lysoPtdCho; detergent-free; 10 mM MgCl2; pH 7.5; 37°C

SMILES	% of control activity
CCCCCCCCCCCCC/C=C/[C@@H](O)[C@@H](N)COP(=O)([O-])OCC[N+](C)(C)C [sphingosylphosphocholine]	lysoPtdCho was strongly competed by sphingosylphosphocholine
CCCCCCCCCCCCCCCCOC[C@@H](O)COP(=O)([O-])OCC[N+](C)(C)C [lysoPAF]	The activity was moderately competed by PAF and lysoPAF

Source: PMC2196011 (The Journal of Experimental Medicine, 2002)
